From patent US20260042764A1, “COMPOSITIONS AND METHODS FOR INHIBITION OF KRAS” (TheRas, Inc., priority 2022, published 2026)

How the values were obtained:
[1] = molecular target: T1, Avi-KRAS G12D (1-169) GppNHp/RAF1 RBD-3xFLAG (52-151) (Homo sapiens, UniProt P01116, G12D); test: Raf1-KRAS G12D-GppNHP disruption HTRF assay (Biological Example 1); type: binding
T1 construct: Avi-KRAS G12D (1-169)
Procedure, shortened: (§1)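 Using HTRF, the loss of KRAS–effector RAF1 complex was quantified in 50 mM Tris pH 7.5 buffer with 100 mM NaCl and 0.1% BSA. The protein step and reagent step ran 1 h each at room temperature. Activity normalized with DMSO taken as 100%.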

[2] = molecular target: T2, Avi-KRAS G12R (1-169) GppNHp/RAF1 RBD-3xFLAG (52-151) (Homo sapiens, UniProt P01116, G12R); test: Raf1-KRAS G12R-GppNHP disruption HTRF assay (Biological Example 1); type: binding
T2 construct: Avi-KRAS G12R (1-169)
Procedure, shortened: as §1

[3] = molecular target: T3, Avi-KRAS G12V (1-169) GppNHp/RAF1 RBD-3xFLAG (52-151) (Homo sapiens, UniProt P01116, G12V); test: Raf1-KRAS G12V-GppNHP disruption HTRF assay (Biological Example 1); type: binding
T3 construct: Avi-KRAS G12V (1-169)
Procedure, shortened: as §1

[4] = molecular target: T4, Avi-KRAS WT (1-169) GppNHp/RAF1 RBD-3xFLAG (52-151) (Homo sapiens, UniProt P01116); test: Raf1-KRAS WT-GppNHP disruption HTRF assay (Biological Example 1); type: binding
T4 construct: Avi-KRAS WT (1-169)
Procedure, shortened: as §1

[5] = tested on: GP2d cells (KRAS G12D); test: Cell-based pERK HTRF assay in GP2d cell (Biological Example 2); conditions: GP2d (KRAS G12D) cells, pERK HTRF
Procedure, shortened: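 60 min compound, 0.25% DMSO, 9-pt half-log curve from 1 μM or 100 nM; DMEM/10% FBS.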

[6] = tested on: SW620 cells (KRAS G12V); test: Cell-based pERK HTRF assay in SW620 cell (Biological Example 4); conditions: pERK HTRF
Procedure, shortened: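 Read-out: HTRF pERK signal (excitation 320 nm, emission 615 nm) from lysates of SW620 cells after 4 h compound exposure. Dose range was 9 points, half-log steps from 1 μM, in 0.25% DMSO; antibody incubation ran 4–24 h at room temperature.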

[7] = Homo sapiens, SW-620, SW620 (KRAS G12V) cells
[8] = KRAS G12D, GppNHp-loaded, class symbols
[9] = KRAS G12R, GppNHp-loaded, class symbols
[10] = KRAS G12V, GppNHp-loaded, class symbols
[11] = KRAS WT, GppNHp-loaded, class symbols
[12] = Homo sapiens, SW-620, SW620 (KRAS G12V) cells, class symbols

T1 sequence (P01116 1-169 isoform P01116-2 G12D): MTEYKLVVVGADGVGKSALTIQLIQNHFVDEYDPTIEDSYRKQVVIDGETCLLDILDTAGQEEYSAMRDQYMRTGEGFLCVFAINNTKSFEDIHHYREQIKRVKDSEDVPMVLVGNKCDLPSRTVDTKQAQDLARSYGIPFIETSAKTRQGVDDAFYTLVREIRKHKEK
T2 sequence (P01116 1-169 isoform P01116-2 G12R): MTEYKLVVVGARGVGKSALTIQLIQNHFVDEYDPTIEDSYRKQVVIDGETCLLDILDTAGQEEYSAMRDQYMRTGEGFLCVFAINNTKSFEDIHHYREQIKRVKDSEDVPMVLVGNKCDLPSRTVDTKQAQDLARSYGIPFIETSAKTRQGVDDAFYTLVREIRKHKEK
T3 sequence (P01116 1-169 isoform P01116-2 G12V): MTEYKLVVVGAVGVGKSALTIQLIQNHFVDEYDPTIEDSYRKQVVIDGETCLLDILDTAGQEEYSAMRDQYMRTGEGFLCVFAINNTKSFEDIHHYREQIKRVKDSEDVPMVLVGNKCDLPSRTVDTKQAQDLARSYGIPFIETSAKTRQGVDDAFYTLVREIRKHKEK
T4 sequence (P01116 1-169 isoform P01116-2): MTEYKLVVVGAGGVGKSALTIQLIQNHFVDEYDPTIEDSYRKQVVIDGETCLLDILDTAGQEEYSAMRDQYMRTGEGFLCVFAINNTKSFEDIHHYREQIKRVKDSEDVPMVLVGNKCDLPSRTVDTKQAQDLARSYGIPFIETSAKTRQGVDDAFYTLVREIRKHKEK

SMILES | IC50 ([1]; KRAS G12D-GppNHp/RAF1 RBD HTRF) [nM] | IC50 ([2]; KRAS G12R-GppNHp/RAF1 RBD HTRF) [nM] | IC50 ([3]; KRAS G12V-GppNHp/RAF1 RBD HTRF) [nM] | IC50 ([4]; KRAS WT-GppNHp/RAF1 RBD HTRF) [nM] | IC50 ([5]; GP2d) [nM] | IC50 [6, 7] [nM] | IC50 [1, 8] [nM] | IC50 [2, 9] [nM] | IC50 [3, 10] [nM] | IC50 [4, 11] [nM] | also measured
N#Cc1c(N)sc2c(F)ccc(-c3c(C(F)(F)F)cc4c(N5CC6CC(O)C(C6)C5)nc(OC[C@@]56CCCN5C[C@H](F)C6)nc4c3F)c12 (stereo partly drawn) [Compound 306] | 1000 to 10000 | 1000 to 10000 | > 10000 | 1000 to 10000 | 100 to 1000 | 100 to 1000 |  |  |  |  | 
CC(=O)N1CCC2[C@H]1CCCN2c1nc(OC[C@@]23CCCN2C[C@H](F)C3)nc2c(F)c(-c3ccc(F)c4sc(N)c(C#N)c34)c(C(F)(F)F)cc12 (stereo partly drawn) [Compound 304] | 1000 to 10000 | 1000 to 10000 | 1000 to 10000 | 100 to 1000 | < 100 | 100 to 1000 |  |  |  |  | 
CN(C)C(=O)c1nc2c(s1)CCN(c1nc(OCC34CCCN3CC(F)C4)nc3c(F)c(-c4ccc(F)c5sc(N)c(C#N)c45)c(C(F)(F)F)cc13)C2 (stereo not drawn) [Compound 445] | 1000 to 10000 | > 10000 | > 10000 | > 10000 | > 1000 | 100 to 1000 |  |  |  |  | 
N#Cc1c(N)sc2c(F)ccc(-c3c(C(F)(F)F)cc4c(N5CCCC[C@H](O)C5)nc(OC[C@@]56CCCN5C[C@H](F)C6)nc4c3F)c12 [Compound 290] | 100 to 1000 | 100 to 1000 | 100 to 1000 | 100 to 1000 | < 100 | < 100 |  |  |  |  | 
N#Cc1c(N)sc2c(F)ccc(-c3c(C(F)(F)F)cc4c(N5CCN6C(=O)CCC6C5)nc(OCC56CCCN5CC(F)C6)nc4c3F)c12 (stereo not drawn) [Compound 430] | 100 to 1000 | 100 to 1000 | 1000 to 10000 | 100 to 1000 |  |  |  |  |  |  | IC50 [5]: < 100 nM; IC50 ([6]; SW620 (KRAS G12V) cells): < 100 nM

Further lines, with some results ahead:

IC50 ([1]; KRAS G12D-GppNHp/RAF1 RBD HTRF) [nM] | IC50 ([2]; KRAS G12R-GppNHp/RAF1 RBD HTRF) [nM] | IC50 ([3]; KRAS G12V-GppNHp/RAF1 RBD HTRF) [nM] | IC50 ([4]; KRAS WT-GppNHp/RAF1 RBD HTRF) [nM] | IC50 ([5]; GP2d) [nM] | IC50 [6, 7] [nM] | IC50 [1, 8] [nM] | IC50 [2, 9] [nM] | IC50 [3, 10] [nM] | IC50 [4, 11] [nM] | SMILES | also measured
 |  |  |  |  |  | < 100 | < 100 | < 100 | < 100 | CCN(c1nc(OC[C@@]23CCCN2C[C@H](F)C3)nc2c(F)c(-c3ccc(F)c4sc(N)c(C#N)c34)c(C(F)(F)F)cc12)[C@H]1CCN(C(=O)c2ccncn2)C1 (atropisomer, axis not shown) [Compound 730] | IC50 ([5]; GP2d, class symbols): < 100 nM; IC50 [6, 12]: < 100 nM
 |  |  |  |  |  | < 100 | < 100 | < 100 | < 100 | CCN(c1nc(OC[C@@]23CCCN2C[C@H](F)C3)nc2c(F)c(-c3ccc(F)c4sc(N)c(C#N)c34)c(C(F)(F)F)cc12)[C@H]1CCN(C(=O)OC2CC(F)C2)C1 (stereo partly drawn) [Compound 787] | IC50 ([5]; class symbols): < 100 nM; IC50 ([6]; SW620 (KRAS G12V) cells, class symbols): < 100 nM
 |  |  |  |  |  | < 100 | 100 to 1000 | 100 to 1000 | 100 to 1000 | CCN(c1nc(OC[C@@]23CCCN2C[C@H](F)C3)nc2c(F)c(-c3ccc(F)c4sc(N)c(C#N)c34)c(C(F)(F)F)cc12)[C@H]1CCN(C(=O)c2cnnn2C)C1 (atropisomer, axis not shown) [Compound 733] | IC50 ([5]; GP2d, class symbols): < 100 nM; IC50 [6, 12]: < 100 nM
 |  |  |  | 100 to 1000 | 100 to 1000 |  |  |  |  | CC(=O)N(C)[C@H]1CCN(c2nc(OC[C@@]34CCCN3C[C@H](F)C4)nc3c(F)c(-c4ccc(F)c5sc(N)c(C#N)c45)c(C(F)(F)F)cc23)C1 [Compound 206] | IC50 ([1]; KRAS G12D, GppNHp-loaded, Table 11): 1000 to 10000 nM; IC50 ([2]; KRAS G12R, GppNHp-loaded, Table 11): 1000 to 10000 nM; IC50 ([3]; KRAS G12V, GppNHp-loaded, Table 11): 1000 to 10000 nM; IC50 ([4]; KRAS WT, GppNHp-loaded, Table 11): 1000 to 10000 nM
100 to 1000 | 100 to 1000 | 100 to 1000 | 100 to 1000 | < 100 | < 100 |  |  |  |  | CCN(c1nc(OC[C@@]23CCCN2C[C@H](F)C3)nc2c(F)c(-c3ccc(F)c4sc(N)c(C#N)c34)c(C(F)(F)F)cc12)[C@H]1CCS(=O)(=O)C1 [Compound 350] | 
 |  |  |  |  |  | < 100 | < 100 | < 100 | 100 to 1000 | CCN(c1nc(OC[C@@]23CCCN2C[C@H](F)C3)nc2c(F)c(-c3ccc(F)c4sc(N)c(C#N)c34)c(C(F)(F)F)cc12)[C@H]1CCN(C(=O)OC2CCC2)C1 (atropisomer, axis not shown) [Compound 802] | IC50 ([5]; GP2d, class symbols): < 100 nM; IC50 [6, 12]: < 100 nM
